Assay results taken from US4232155A, “Purine compounds” (Bristol-Myers Company, priority 1979, dated 1980).
In brackets after ≈: the same amount, converted by molar mass.

What was measured:
guinea pig = test: In vivo bronchodilator and hypotensive activity (intratracheal pressure and arterial blood pressure in anesthetized guinea pig); settings: intravenous; for ABP ED20 (dose which reduces arterial blood pressure by 20%): hypotensive activity; for ED50: Cavia porcellus, bronchodilator activity, read-out: ITP ED50 (dose resulting in a 50% decrease in intratracheal pressure); for Ratio ABP/ITP (hypotensive ED20/bronchodilating ED50): separation of bronchodilator from hypotensive effect
Method: The trachea of anesthetized guinea pig was cannulated and the ITP recorded on a polygraph under artificial ventilation. Arterial blood pressure (ABP; reflecting hypotensive activity) was also measured during the experiment. Either intravenous or intraduodenal routes of administration are used. […] The ratio of hypotensive ED20 /brochodilating ED50 reflects an assessment of the separation of desirable brochodilator activity from undesirable cardiovascular (hypotensive) effect in the compounds.

[1] = test system: Tracheal chains of guinea pig; test: In vitro bronchodilator activity, relaxation of tracheal chains (Magnus method); settings: Cavia porcellus, relative to 0.1 mcg./ml. isoproterenol, read-out: EC50 (concentration producing a relaxation which is 50% of the maximum response to 0.1 mcg./ml. of isoproterenol)
Method: Tracheal chains of guinea pig were prepared by the method of A. Akcasu, Arch. Int. […] The response to each test compound was recorded by the Magnus method and expressed as a percentage of the maximum response obtained with 0.1 mcg./ml. of isoproterenol prior to each experiment.

Structure (SMILES)	EC50 [1]	ABP ED20 (dose which reduces arterial blood pressure by 20%) (guinea pig)	ED50 (guinea pig)	Ratio ABP/ITP (hypotensive ED20/bronchodilating ED50) (guinea pig)
Cn1c(=O)c2[nH]cnc2n(C)c1=O [Aminophylline, reference compound]		1.4 mg/kg		
CCCNc1nc(N)c2ncn(C3C=CCCC3)c2n1 (centres unmarked) [Example 1, 9-(2-Cyclohexenyl)-2-n-propylamino-9H-adenine]	0.47 µg/mL (≈ 1.73 µM)	> 3 mg/kg	1.4 mg/kg	> 2.1
CCCNc1nc(N)c2ncn(C3CCCCC3)c2n1 [Example 3, 9-Cyclohexyl-2-n-propylamino-9H-adenine]	0.75 µg/mL (≈ 2.73 µM)	2.8 mg/kg	0.49 mg/kg	5.7

Now from value to molecule, other results behind:

EC50 [1]	Structure (SMILES)	ABP ED20 (dose which reduces arterial blood pressure by 20%) (guinea pig)	ED50 (guinea pig)	Ratio ABP/ITP (hypotensive ED20/bronchodilating ED50) (guinea pig)
0.24 µg/mL (≈ 0.768 µM)	Nc1nc(NC2CCCCC2)nc2c1ncn2C1C=CCCC1 (centres unmarked) [Example 2, 9-(2-Cyclohexenyl)-2-cyclohexylamino-9H-adenine]	2.4 mg/kg	> 3 mg/kg	< 0.8
0.21 µg/mL (≈ 0.668 µM)	Nc1nc(NC2CCCCC2)nc2c1ncn2C1CCCCC1 [Example 4, 9-Cyclohexyl-2-cyclohexylamino-9H-adenine]	> 3 mg/kg	1.5 mg/kg	> 2
